Measured values from patent US11414465B2, “Plasma membrane intrinsic aquaporin for absorbing and transporting neonicotinoid insecticides, and coding gene and use therefor” (JIANGSU ACADEMY OF ARGRICULTURAL SCIENCES, priority 2020, dated 2022).

Assays:
Chinese cabbage plants = conditions: 2 mg/L compound in Hoagland nutrient solution, mercuric chloride or glycerol added, 48 h
[1] = tested on: Saccharomyces cerevisiae INVSc1 (pYES2); assay: Thiamethoxam content experiment, control yeast strain; format: cell-based; conditions: 30° C., 6 h
From the text: (§1) The BraPIP1;1 gene cloned in Example 1 was constructed into the Saccharomyces cerevisiae overexpression vector pYES2 (purchased from Clotech) referring to (He Lin, Jiang Lili, Wang Yucheng, Analysis of the stress tolerance of Tamarix thioredoxin peroxidase (ThPrx1) gene transformed into yeast, Journal of Northeast Forestry University, 2011, Vol. 39. No. 4, 101-104), and the constructed recombinant plasmid was named pYES2-BraPIP1;1. The pYES2-BraPIP1;1 and an empty vector pYES2 were transformed into Saccharomyces cerevisiae INVSc1 by lithium acetate precipitation. The recombinant yeasts were named INVSc1 (pYES2-BraPIP1;1) and INVSc1 (pYES2), respectively.
(§2) Induction of recombinant strains: Single colonies of the control yeast INvsc1 (pYES2) and the recombinant yeast INvscl (pYES2-BraPIP1;1) were picked, inoculated in an SC-U liquid medium (with glucose of a final concentration of 2%) respectively, and incubated at 30° C. for 24 h on a shaker. The OD600 value is measured, and the amount of bacterial solution required is calculated such that the OD600 of bacteria in 10 ml of induction medium (SC-U+2% galactose) is 0.4. Induce expression was carried out at 30° C. for 24 h. The OD600 value was measured again, and the amount of bacterial solution required was calculated. […]

[2] = tested on: BraPIP1;1 overexpression Arabidopsis thaliana (BraPIP1;1#4, BraPIP1;1#6); assay: Main root length of BraPIP1;1 transgenic Arabidopsis thaliana under thiamethoxam stress; format: in vivo; conditions: 1/2MS media with 10 and 50 mg/L thiamethoxam, 20 days, compared with wild type Col-0
From the text: (§3) The BraPIP1;1 gene cloned in Example 1 was constructed into the plant binary overexpression vector pCAMBIA2301 (purchased from Clotech). By the Agrobacterium tumefaciens-mediated method (Valvekens, D., van Montagu, M., and Lijsebettens, M. V. (1988). Agrobacterium tumefaciens-mediated transformation of Arabidopsis thaliana root explants by using kanamycin selection. Proc. Natl. Acad. Sci. USA 85, 5536-5540.), the inflorescence of wild-type Arabidopsis thaliana Col-0 (purchased from ATCC, USA) was infected with the constructed overexpression vector. Through screening (resistance pure line seedlings were screened on a ½MS plate containing 50 μg/mL kanamycin), BraPIP1;1 overexpression Arabidopsis thaliana pure line materials BraPIP1;1#4 and BraPIP1;1#6 were identified and obtained.
The pure line seeds of the BraPIP1;1#4 and BraPIP1;1#6 obtained in the previous transgenic experiment and a wild-type Col-0 material (WT) were germinated on a ½MS medium respectively, and then transferred to ½MS media (Qingdao Hopebio Co., Ltd., Item No. HB8469-12, PH=5.6) containing 10 and 50 mg/L thiamethoxam respectively. After 20 days, the growth of the seedlings was observed and the main root length was measured.

BraPIP1;1 gene = assay: Response of BraPIP1;1 gene expression to thiamethoxam (quantitative RT-PCR); format: in vivo, Chinese cabbage; conditions: 10 mg/L thiamethoxam, p<0.001
Description: Seedlings of Chinese cabbage with the same growth condition were put in a Hoagland's nutrient solution containing 10 mg/L thiamethoxam (the Hoagland's nutrient solution was purchased from Beijing Coolaber Technology Co., Ltd.), and treated in the Hoagland's nutrient solution for 6 and 24 hours (treatment group).
At the same time, a Hoagland's nutrient solution without thiamethoxam was used as the control group.
Treated root and aboveground tissue RNA of two groups was extracted respectively, the 1st strand cDNA was obtained by reverse transcription as a template, specific expression primers were designed based on the cDNA sequence of BraPIP1;1, the Chinese cabbage Tublin was used as an internal reference, and the expression of the gene transcription level was detected by quantitative RT-PCR.
The quantification instrument is 7500 Real Time PCR System (Applied Biosystem), and a qPCRT system was configured according to the instructions of a kit 2×TSINGKE Master qPCR Mix (Tsingke Biotechnology Co., Ltd.). The PCR program is: pre-denaturation at 95° C. for 10 min, at 95° C. for 15 s, and at 60° C. for 20 s, for 40 cycles.

[3] = tested on: Saccharomyces cerevisiae INVSc1 (pYES2-BraPIP1;1); assay: Growth experiment of recombinant yeast strains under thiamethoxam stress; format: cell-based; conditions: 10-1600 mg/L thiamethoxam, stress at 30° C. for 72 h, compared with wild strain (pYES2)
From the text: as §1, §2

[4] = tested on: BraPIP1;1 overexpression Arabidopsis thaliana; assay: Thiamethoxam content of BraPIP1;1 transgenic Arabidopsis thaliana grown in soil; format: in vivo; conditions: soil containing 10 mg/L thiamethoxam, 20 days, compared with wild plant
From the text: as §3
In addition, germinated seedlings of the same size were transplanted into soil containing 10 mg/L thiamethoxam, and after 20 days of culture, the root and aboveground samples of the transgenic Arabidopsis thaliana and the control were harvested respectively, washed with deionized water, and weighed.

[5] = tested on: Saccharomyces cerevisiae INVSc1 (pYES2-BraPIP1;1); assay: Thiamethoxam content experiment, recombinant yeast strain; format: cell-based; conditions: 30° C., 6 h
From the text: as §1, §2

Row | Compound | content of the compound in the plants after the water channel inhibitors were added (Chinese cabbage plants) | thiamethoxam content of the control strain ([1]; 10 mg/L thiamethoxam) | thiamethoxam content of the control strain (pYES2) ([1]; 100 mg/L thiamethoxam) | main root length of the transgenic strain [2] | expression abundance of BraPIP1;1 in the aboveground parts vs control (BraPIP1;1 gene; 6 hours) | expression abundance of BraPIP1;1 in the roots vs control (BraPIP1;1 gene; 6 hours) | expression abundance of BraPIP1;1 in the aboveground parts vs control (BraPIP1;1 gene; 24 hours) | growth of transgenic strain (pYES2-BraPIP1;1) with thiamethoxam [3] | thiamethoxam content of the aboveground parts of the transgenic plant [4] | thiamethoxam content of the roots of the transgenic plant [4] | thiamethoxam content of the recombinant strain ([5]; 10 mg/L thiamethoxam) | thiamethoxam content of the recombinant strain (pYES2-BraPIP1;1) ([5]; 100 mg/L thiamethoxam)
1 | CN1CCCC1c1cccnc1 (stereo not drawn) [nicotine] | did not change significantly | – | – | – | – | – | – | – | – | – | – | –
2 | CN1COCN(Cc2cnc(Cl)s2)/C1=N\[N+](=O)[O-] [thiamethoxam] | – | 0.0038 ng/OD | 0.011 ng/OD | shorter than that of the wild type | significantly increased | significantly increased | significantly increased | grows weaker than the wild strain | higher than that of the wild plant | higher than that of the wild plant | 0.0078 ng/OD | 0.021 ng/OD
